Measured values published in PubChem BioAssay (NCI).
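Protocol summary: plate cells (96-well), add compound at 5 concentrations, incubate 48 h, interpolate endpoints linearly. Definition used: TGI = concentration required for complete inhibition of growth.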 Where a SMILES comes first, the peptide text is derived from it. Bridges are numbered along the chain shown (N, C = ends). [ ]: non-standard residue; d: D form. The star is where a group is joined. Cya = N[CH](CS(=O)(=O)O)C(=O)O; X49 = CC(C)CCCCCCCC(O)CC(=O)*; GABA = NCCCC(=O)O

Columns and labels:
Experiment in all cases: inhibition of tumour cell growth, NCI panel, 48 h
K-562 leukemia = test system: K-562 leukemia
CAKI-1 renal = test system: CAKI-1 renal
LOX IMVI melanoma = test system: LOX IMVI melanoma
BT-549 breast = test system: BT-549 breast
HT29 colon = test system: HT29 colon
SNB-19 CNS = test system: SNB-19 CNS
SNB-75 CNS = test system: SNB-75 CNS
OVCAR-4 ovarian = test system: OVCAR-4 ovarian
SF-295 CNS = test system: SF-295 CNS
SN12C renal = test system: SN12C renal
ACHN renal = test system: ACHN renal
SR leukemia = test system: SR leukemia
DU-145 prostate = test system: DU-145 prostate
HCC-2998 colon = test system: HCC-2998 colon
OVCAR-3 ovarian = test system: OVCAR-3 ovarian
SW-620 colon = test system: SW-620 colon
MCF7 breast = test system: MCF7 breast
NCI-H460 lung = test system: NCI-H460 lung
NCI-H226 lung = test system: NCI-H226 lung
IGROV1 ovarian = test system: IGROV1 ovarian
UACC-257 melanoma = test system: UACC-257 melanoma
HOP-62 NSCLC = test system: HOP-62 NSCLC
KM12 colon = test system: KM12 colon
HS 578T breast = test system: HS 578T breast
HCT-15 colon = test system: HCT-15 colon
SF-539 CNS = test system: SF-539 CNS
CCRF-CEM leukemia = test system: CCRF-CEM leukemia
EKVX NSCLC = test system: EKVX NSCLC
786-0 renal = test system: 786-0 renal
OVCAR-5 ovarian = test system: OVCAR-5 ovarian
A498 renal = test system: A498 renal
UACC-62 melanoma = test system: UACC-62 melanoma
OVCAR-8 ovarian = test system: OVCAR-8 ovarian
HOP-92 NSCLC = test system: HOP-92 NSCLC
TK-10 renal = test system: TK-10 renal
UO-31 renal = test system: UO-31 renal
SK-OV-3 ovarian = test system: SK-OV-3 ovarian
MDA-MB-231 breast = test system: MDA-MB-231 breast
SK-MEL-2 melanoma = test system: SK-MEL-2 melanoma
NCI/ADR-RES ovarian = test system: NCI/ADR-RES ovarian
T-47D breast = test system: T-47D breast
NCI-H23 lung = test system: NCI-H23 lung
SK-MEL-5 melanoma = test system: SK-MEL-5 melanoma
A549 NSCLC = test system: A549 NSCLC
HCT-116 colon = test system: HCT-116 colon
M14 melanoma = test system: M14 melanoma
MDA-N = test system: MDA-N
NCI-H522 lung = test system: NCI-H522 lung
COLO 205 colon = test system: COLO 205 colon
U251 CNS = test system: U251 CNS
HL-60(TB) leukemia = test system: HL-60(TB) leukemia
PC-3 prostate = test system: PC-3 prostate
MALME-3M melanoma = test system: MALME-3M melanoma
MOLT-4 leukemia = test system: MOLT-4 leukemia
MDA-MB-435 = test system: MDA-MB-435
RPMI-8226 leukemia = test system: RPMI-8226 leukemia
SK-MEL-28 melanoma = test system: SK-MEL-28 melanoma
SF-268 CNS = test system: SF-268 CNS

`CC(C)CCCCCCCC(O)CC(=O)NC(CS(=O)(=O)O)C(=O)NC(CC(C)C)C(=O)NCCCC(=O)NC(Cc1cnc[nH]1)C(=O)NC(C)C(=O)NC1C(=O)NC(C(C)O)C(=O)NC(Cc2cnc[nH]2)C(=O)NC(C)C(=O)NC(C(C)O)C(=O)OC1C` (stereo not given) (X49-[Cya]L[GABA]HATTHAT; ester 6-C; configuration not given here) was tested, and the TGI (K-562 leukemia) was > 25 µM, the TGI (CAKI-1 renal) was > 25 µM and the TGI (LOX IMVI melanoma) was > 25 µM. The TGI (BT-549 breast) was > 25 µM, the TGI (HT29 colon) was > 25 µM and the TGI (SNB-19 CNS) was > 25 µM. The TGI (SNB-75 CNS) was > 25 µM, the TGI (OVCAR-4 ovarian) was > 25 µM and the TGI (SF-295 CNS) was > 25 µM. The TGI (SN12C renal) was > 25 µM, the TGI (ACHN renal) was > 25 µM and the TGI (SR leukemia) was > 25 µM. For the same molecule, the TGI (DU-145 prostate) was > 25 µM, the TGI (HCC-2998 colon) was > 25 µM and the TGI (OVCAR-3 ovarian) was > 25 µM. The TGI (SW-620 colon) was > 25 µM, the TGI (MCF7 breast) was > 25 µM and the TGI (NCI-H460 lung) was > 25 µM. The TGI (NCI-H226 lung) was > 25 µM, the TGI (IGROV1 ovarian) was > 25 µM and the TGI (UACC-257 melanoma) was > 25 µM. The TGI (HOP-62 NSCLC) was > 25 µM, the TGI (KM12 colon) was > 25 µM and the TGI (HS 578T breast) was > 25 µM. For the same molecule, the TGI (HCT-15 colon) was > 25 µM, the TGI (SF-539 CNS) was > 25 µM and the TGI (CCRF-CEM leukemia) was > 25 µM. The TGI (EKVX NSCLC) was > 25 µM, the TGI (786-0 renal) was > 25 µM and the TGI (OVCAR-5 ovarian) was > 25 µM. The TGI (A498 renal) was > 25 µM, the TGI (UACC-62 melanoma) was > 25 µM and the TGI (OVCAR-8 ovarian) was > 25 µM. For the same molecule, the TGI (HOP-92 NSCLC) was > 25 µM, the TGI (TK-10 renal) was > 25 µM and the TGI (UO-31 renal) was > 25 µM. The TGI (SK-OV-3 ovarian) was > 25 µM, the TGI (MDA-MB-231 breast) was > 25 µM and the TGI (SK-MEL-2 melanoma) was > 25 µM. The TGI (NCI/ADR-RES ovarian) was > 25 µM, the TGI (T-47D breast) was > 25 µM and the TGI (NCI-H23 lung) was > 25 µM. For the same molecule, the TGI (SK-MEL-5 melanoma) was > 25 µM, the TGI (A549 NSCLC) was > 25 µM and the TGI (HCT-116 colon) was > 25 µM. For the same molecule, the TGI (M14 melanoma) was > 25 µM, the TGI (MDA-N) was > 25 µM and the TGI (NCI-H522 lung) was > 25 µM. The TGI (COLO 205 colon) was > 25 µM, the TGI (U251 CNS) was > 25 µM and the TGI (HL-60(TB) leukemia) was > 25 µM. The TGI (PC-3 prostate) was > 25 µM, the TGI (MALME-3M melanoma) was > 25 µM and the TGI (MOLT-4 leukemia) was > 25 µM. For the same molecule, the TGI (MDA-MB-435) was > 25 µM, the TGI (RPMI-8226 leukemia) was > 25 µM and the TGI (SK-MEL-28 melanoma) was > 25 µM.

In the case of `CCOC(=O)C(CS)NC(=O)CCCCCCCC(=O)O` (stereo not given), the TGI (K-562 leukemia) is reported as > 100 µM, the TGI (CAKI-1 renal) is reported as > 100 µM and the TGI (LOX IMVI melanoma) is reported as > 100 µM. The TGI (BT-549 breast) was > 100 µM, the TGI (HT29 colon) was > 100 µM and the TGI (SNB-19 CNS) was > 100 µM. The TGI (SNB-75 CNS) was > 100 µM, the TGI (OVCAR-4 ovarian) was > 100 µM and the TGI (SF-295 CNS) was > 100 µM. For the same molecule, the TGI (SN12C renal) was > 100 µM, the TGI (ACHN renal) was > 100 µM and the TGI (SR leukemia) was > 100 µM. For the same molecule, the TGI (DU-145 prostate) was > 100 µM, the TGI (HCC-2998 colon) was > 100 µM and the TGI (OVCAR-3 ovarian) was > 100 µM. For the same molecule, the TGI (SW-620 colon) was > 100 µM, the TGI (MCF7 breast) was > 100 µM and the TGI (NCI-H460 lung) was > 100 µM. For the same molecule, the TGI (NCI-H226 lung) was > 100 µM, the TGI (IGROV1 ovarian) was > 100 µM and the TGI (UACC-257 melanoma) was > 100 µM. For the same molecule, the TGI (HOP-62 NSCLC) was > 100 µM, the TGI (KM12 colon) was > 100 µM and the TGI (HS 578T breast) was > 100 µM. The TGI (HCT-15 colon) was > 100 µM, the TGI (CCRF-CEM leukemia) was > 100 µM and the TGI (EKVX NSCLC) was > 100 µM. The TGI (786-0 renal) was > 100 µM, the TGI (OVCAR-5 ovarian) was > 100 µM and the TGI (A498 renal) was > 100 µM. The TGI (UACC-62 melanoma) was > 100 µM, the TGI (OVCAR-8 ovarian) was > 100 µM and the TGI (HOP-92 NSCLC) was > 100 µM. The TGI (TK-10 renal) was > 100 µM, the TGI (UO-31 renal) was > 100 µM and the TGI (SK-OV-3 ovarian) was > 100 µM. For the same molecule, the TGI (MDA-MB-231 breast) was > 100 µM, the TGI (SK-MEL-2 melanoma) was > 100 µM and the TGI (NCI/ADR-RES ovarian) was > 100 µM. The TGI (T-47D breast) was > 100 µM, the TGI (NCI-H23 lung) was > 100 µM and the TGI (SK-MEL-5 melanoma) was > 100 µM. For the same molecule, the TGI (A549 NSCLC) was > 100 µM, the TGI (HCT-116 colon) was > 100 µM and the TGI (M14 melanoma) was > 100 µM. For the same molecule, the TGI (MDA-N) was > 100 µM, the TGI (NCI-H522 lung) was > 100 µM and the TGI (COLO 205 colon) was > 100 µM. For the same molecule, the TGI (U251 CNS) was > 100 µM, the TGI (HL-60(TB) leukemia) was > 100 µM and the TGI (PC-3 prostate) was > 100 µM. The TGI (MALME-3M melanoma) was > 100 µM, the TGI (MOLT-4 leukemia) was > 100 µM and the TGI (MDA-MB-435) was > 100 µM. For the same molecule, the TGI (RPMI-8226 leukemia) was > 100 µM and the TGI (SK-MEL-28 melanoma) was > 100 µM.

`COc1cc2c(cc1OC)C1c3ccccc3CCCN1CC2` (stereo not given) was tested, and the TGI (K-562 leukemia) was > 100 µM, the TGI (CAKI-1 renal) was > 100 µM and the TGI (LOX IMVI melanoma) was > 100 µM. For the same molecule, the TGI (BT-549 breast) was > 100 µM, the TGI (HT29 colon) was > 100 µM and the TGI (SNB-19 CNS) was > 100 µM. For the same molecule, the TGI (SNB-75 CNS) was > 100 µM, the TGI (OVCAR-4 ovarian) was > 100 µM and the TGI (SF-295 CNS) was > 100 µM. The TGI (SN12C renal) was > 100 µM, the TGI (ACHN renal) was > 100 µM and the TGI (SR leukemia) was > 100 µM. The TGI (DU-145 prostate) was > 100 µM, the TGI (HCC-2998 colon) was > 100 µM and the TGI (OVCAR-3 ovarian) was > 100 µM. The TGI (SW-620 colon) was > 100 µM, the TGI (MCF7 breast) was > 100 µM and the TGI (NCI-H226 lung) was > 100 µM. The TGI (IGROV1 ovarian) was > 100 µM, the TGI (UACC-257 melanoma) was > 100 µM and the TGI (HOP-62 NSCLC) was > 100 µM. The TGI (KM12 colon) was > 100 µM, the TGI (HS 578T breast) was > 100 µM and the TGI (SF-268 CNS) was > 100 µM. For the same molecule, the TGI (HCT-15 colon) was > 100 µM, the TGI (SF-539 CNS) was > 100 µM and the TGI (CCRF-CEM leukemia) was > 100 µM. For the same molecule, the TGI (EKVX NSCLC) was > 100 µM, the TGI (786-0 renal) was > 100 µM and the TGI (OVCAR-5 ovarian) was > 100 µM. For the same molecule, the TGI (A498 renal) was > 100 µM, the TGI (UACC-62 melanoma) was > 100 µM and the TGI (OVCAR-8 ovarian) was > 100 µM. The TGI (HOP-92 NSCLC) was > 100 µM, the TGI (TK-10 renal) was > 100 µM and the TGI (UO-31 renal) was > 100 µM. The TGI (SK-OV-3 ovarian) was > 100 µM, the TGI (MDA-MB-231 breast) was > 100 µM and the TGI (SK-MEL-2 melanoma) was > 100 µM. For the same molecule, the TGI (NCI/ADR-RES ovarian) was > 100 µM, the TGI (T-47D breast) was > 100 µM and the TGI (NCI-H23 lung) was > 100 µM. For the same molecule, the TGI (SK-MEL-5 melanoma) was > 100 µM, the TGI (A549 NSCLC) was > 100 µM and the TGI (HCT-116 colon) was > 100 µM. The TGI (M14 melanoma) was > 100 µM, the TGI (MDA-N) was > 100 µM and the TGI (NCI-H522 lung) was > 100 µM. For the same molecule, the TGI (COLO 205 colon) was > 100 µM, the TGI (U251 CNS) was > 100 µM and the TGI (HL-60(TB) leukemia) was > 100 µM. The TGI (PC-3 prostate) was > 100 µM, the TGI (MALME-3M melanoma) was > 100 µM and the TGI (MOLT-4 leukemia) was > 100 µM. For the same molecule, the TGI (MDA-MB-435) was > 100 µM, the TGI (RPMI-8226 leukemia) was > 100 µM and the TGI (SK-MEL-28 melanoma) was > 100 µM.
